Test results published in paper PMC7587970, “Lanostane Triterpenoids from the Fruiting Bodies of Fomes officinalis and Their Anti-Inflammatory Activities” (Molecules, 2020).
Like-named read-outs stand apart in the source and are kept apart here.

Biological target: T1, cyclooxygenase (COX-2) (Ovis aries, UniProt P79208)
T1 construct: gene PTGS2
T1 sequence (P79208 17-603): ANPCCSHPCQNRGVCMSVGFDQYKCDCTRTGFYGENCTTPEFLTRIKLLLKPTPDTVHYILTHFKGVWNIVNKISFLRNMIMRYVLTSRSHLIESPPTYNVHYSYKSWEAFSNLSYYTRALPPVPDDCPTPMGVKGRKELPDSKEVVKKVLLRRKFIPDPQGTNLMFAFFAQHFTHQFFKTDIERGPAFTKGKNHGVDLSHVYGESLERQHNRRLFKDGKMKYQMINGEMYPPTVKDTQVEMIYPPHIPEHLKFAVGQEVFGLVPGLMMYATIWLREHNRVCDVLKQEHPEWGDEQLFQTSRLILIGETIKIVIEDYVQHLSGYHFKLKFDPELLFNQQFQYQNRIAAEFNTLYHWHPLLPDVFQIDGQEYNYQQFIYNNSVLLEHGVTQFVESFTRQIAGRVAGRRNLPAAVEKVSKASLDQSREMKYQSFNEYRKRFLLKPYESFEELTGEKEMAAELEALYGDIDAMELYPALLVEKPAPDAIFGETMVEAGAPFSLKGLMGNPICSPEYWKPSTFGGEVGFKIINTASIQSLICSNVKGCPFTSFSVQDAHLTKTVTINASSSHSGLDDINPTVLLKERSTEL
Experiment: COX colorimetric inhibitor screening assay kit (Cayman), ovine recombinant COX-2
Format: biochemical

Row | SMILES | IC50 (read-out: IC50) [µM] | IC50 [µM]
1 | C[C@@H]1C[C@]2(OC[C@]34[C@H](O)C=C5C(=CC[C@H]6C(C)(C)[C@H](OC(=O)CC(=O)O)CC[C@]56C)[C@]3(C)CC[C@H]14)OC(=O)[C@@H](C)[C@@H]2C [compound 3, officimalonic acid K] | 30.1 | –
2 | COC(=O)CC(=O)O[C@@H]1CC[C@]2(C)C3=C(C(=O)C[C@H]2C1(C)C)[C@]1(C)CC[C@H]([C@H](C)C[C@@H]2OC(=O)C(C)=C2C)[C@@]1(C)[C@H](O)C3 [compound 5, officimalonic acid M] | 42.3 | –
3 | COc1ccc2cc([C@H](C)C(=O)O)ccc2c1 [naproxen, reference compound] | – | 8.2
